Our source for the melting point values is the Bradley open melting point set (2014).

One may read the melting point as the temperature of the solid-liquid transition.

SMILES strings stand for the structures.

In turn, `Brc1ccc2ccccc2c1` [2-bromonaphthalene] came in with a melting point of 55 °C.
The result for `O=[N+]([O-])c1cccc(C=Cc2cccc([N+](=O)[O-])c2)c1` [1,1'-[1,2-Ethenediyl]bis[3-nitrobenzene]] reads 88 °C; that for `NC(Cc1ccccc1)C(=O)O` (configuration not stated) [phenylalanine], 186 °C; that for `N=C1c2ccccc2C(=O)N1c1n[nH]c2ncccc12`, 254 °C.
With `CCBr` [bromoethane], the melting point is -119 °C.
`Clc1cc(Cl)c(-c2cc(Cl)c(Cl)c(Cl)c2Cl)cc1Cl` [PCB-180] gave a melting point of 112 °C.
The result for `CCCCCCC` [N-heptane] reads -91 °C.
As for `C=CC(=O)OCC` [ethyl_acrylate], the melting point is -71 °C.
In the case of `CC(=O)c1cc(Cl)ccc1Cl` [2',5'-dichloroacetophenone] it was 12 °C.
The result for `CC(=O)CC(C)=O` [2,4-pentanedione] reads -23 °C; that for `CCCCCCCC(C)=O` [2-nonanone], -15 °C.
The result for `Nc1ccc([N+](=O)[O-])cc1` [4-Nitroaniline] reads 148 °C; that for `On1nnc2ccccc21` [1H-Benzotriazol-1-ol], 159 °C.
For the compound `COC(=O)c1cccc([N+](=O)[O-])c1` [methyl_3-nitrobenzoate], the melting point worked out at 80 °C.
Turning to `C=CC` [Propylene], the melting point was -185 °C.
`Oc1cccc(N2CCOCC2)c1` [3-(4-morpholinyl)phenol] yielded a melting point of 130 °C.
The result for `ClCC1CO1` (configuration not stated) [epichlorohydrin] reads -57 °C.
`O=Cc1ccc(F)c(Cl)c1` [3-chloro-4-fluorobenzaldehyde] gave a melting point of 27 °C.
In the case of `N#CCc1ccccc1Br` [o-bromophenylacetonitrile] it was -1 °C.
The result for `Cc1c(Cl)cccc1Cl` [2,6-dichlorotoluene] reads 2 °C.
The result for `Oc1cccc(Cl)c1` [3-chlorophenol] reads 32.5 °C; that for `C1CCCCCCCCCCCCCC1` [cyclopentadecane], 62 °C; that for `O=C(O)c1ccc(Br)s1` [5-bromothiophene-2-carboxylic acid], 140 °C.
Consider `CN1CC[C@@H](c2ccc(F)cc2)[C@H](CO)C1` [(3S,4R)-4-(4-fluorophenyl)-1-methyl-3-piperidinemethanol], for which the melting point turned out to be 96 °C.
The result for `CCCN(CCC)C(=O)Cc1c(-c2ccc(Cl)cc2)nc2ccc(Cl)cn12` [alpidem] reads 140 °C; that for `C=C(CC)C(=O)c1ccc(OCC(=O)O)c(Cl)c1Cl` [Ethacrynic acid], 122 °C.
In the case of `c1ccc(-c2nc3ccccc3[nH]2)cc1` [2-phenylbenzimidazole] it was 297 °C.
Consider `CCCCCCCCCCCCCCCCCCCCCC` [N-docosane], for which the melting point turned out to be 45 °C.
Take `C/C=C/C=O` [(2E)-But-2-enal]: the melting point is -76 °C.
`Oc1ccnc2ccccc12` [4-hydroxyquinoline] had a melting point of 203 °C.
In the case of `Cl\C1=C(/Cl)C2(Cl)C3C4CC(C3C1(Cl)C2(Cl)Cl)C5OC45` (configuration not stated) [dieldrin] it was 176 °C.
In the case of `COc1ccc(OC)c(S(N)(=O)=O)c1` [2,5-dimethoxybenzenesulfonamide] it was 147 °C.
`O=C(CCBr)N1CCN(C(=O)CCBr)CC1` [pipobroman] gave a melting point of 106 °C.
The result for `O=Cc1ccccc1B(O)O` [2-formylbenzeneboronic acid] reads 118 °C; that for `CCC(C)=NO` [N-Hydroxybutan-2-imine], -29.5 °C.
The result for `COCC(=O)O` [methoxyacetic acid] reads 8 °C.
`O=C1c2ccccc2C(=O)N1OCCCCBr` [N-(4-bromobutoxy)phthalimide] returned a melting point of 71 °C.
In the case of `CC(C)NCC(O)c1cc(O)cc(O)c1` (configuration not stated) [metaproterenol] it was 100 °C.
With `C=CCc1ccc(OC)c(OC)c1` [4-Allyl-1,2-dimethoxybenzene], the melting point was -4 °C.
In the case of `CCCN1C(=O)CCC(N2C(=O)c3ccccc3C2=O)C1=O` (configuration not stated) [N-Propylthalidomide] it was 136 °C.
As for `CCCCCCl` [1-chloropentane], the melting point was -99 °C.
In the case of `O=C(OC[C@H]1O[C@](O)(COC(=O)c2cccnc2)[C@@H](OC(=O)c2cccnc2)[C@@H]1OC(=O)c1cccnc1)c1cccnc1` [nicofuranose] it was 135 °C; in that of `COC(=O)c1ccc(C(=O)O)cc1` [mono-methyl_terephthalate], 221 °C.
In the case of `CC(CN1c2ccccc2Sc2ccccc21)N(C)C` (configuration not stated) [promethazine] it was 60 °C.
In the case of `O=C1CCCc2cc3c(c(-c4ccccc4)c21)-c1cc(Cl)ccc1OC3` it was 185 °C; in that of `C#CCCCCCCCC` [1-decyne], -44 °C; in that of `CC(=O)c1cccc(O)c1` [3'-hydroxyacetophenone], 95 °C.
`Clc1cc(Cl)c(Cl)c(Cl)c1Cl` [pentachlorobenzene] yielded a melting point of 86 °C.
In the case of `Cc1cc(Cl)ccc1Cl` [2,5-dichlorotoluene] it was 5 °C; in that of `N#Cc1ccc([N+](=O)[O-])cc1Cl` [2-chloro-4-nitrobenzonitrile], 80 °C.
As to `Nc1c2c(nc3ccccc13)CCCC2O` (configuration not stated) [velnacrine], the melting point is 245 °C.
Consider `N#CCc1ccc(C(=O)O)cc1` [p-cyanomethyl_benzoic_acid], for which the melting point worked out at 192 °C.
The result for `c1cc2ccc3cccc4ccc(c1)c2c34` [pyrene] reads 156 °C; that for `O=C(O)CC[C@H](NC(=O)OCc1ccccc1)C(=O)O` [N-benzyloxycarbonyl-l-glutamic acid], 119 °C; that for `Cc1ccccc1-c1ccccc1P(C(C)(C)C)C(C)(C)C` [2-(di-tert-butylphosphino)-2'-methylbiphenyl], 92 °C.
In the case of `FC(F)(F)c1ccc(Cl)c(Cl)c1` [3,4-dichlorobenzotrifluoride] it was -12 °C.
For the compound `Cc1ccc(N)cc1Cl` [3-Chloro-4-methylaniline], the melting point worked out at 26 °C.
Compound `CCOc1ccc(NC(C)=O)cc1` [4-ethoxyacetanilide] returned a melting point of 135 °C.
In the case of `CC(=O)Nc1ccc(Cl)cc1C` [4'-chloro-2'-methylacetanilide] it was 140 °C.
In the case of `Brc1ccccc1-c1ccccc1` [2-bromobiphenyl] it was 2 °C.
In the case of `O=C(O)c1ccccc1Br` [o-bromobenzoic_acid] it was 149 °C; in that of `CC(C)Cn1cnc2c(N)nc3ccccc3c21` [Imiquimod], 293 °C; in that of `Cc1c(C)c(C#N)c2ccccc2c1C#N` [2,3-dimethylnaphthalene-1,4-dicarbonitrile], 263 °C.
The compound `OCCOc1ccccc1` [2-phenoxyethanol] showed a melting point of 12 °C.
The result for `CCCCSCCCC` [di-n-butyl sulfide] reads -80 °C; that for `CC(=O)CC(C)C` [4-methyl-2-pentanone], -84 °C; that for `Nc1c([N+](=O)[O-])cccc1[N+](=O)[O-]` [2,6-dinitroaniline], 133 °C.
